According to patent publication US8247569B2, “Cyclohexane derivative and pharmaceutical use thereof” (Toray Industries, Inc., priority 2008, dated 2012):
Read-outs that look alike come from different tables or passages of the source.

Tests used:
[1] = system: mouse sciatic nerve-ligation model (Seltzer model); experiment: mouse partial sciatic nerve ligation model (Seltzer model), von Frey test; conditions: for von Frey total score compared to the vehicle group: 1 hour after oral administration, doses as in Table 11; for von Frey Total Score Observed 1 Hour after Oral Administration (mean ± standard error), Compound-administered group: n = 5 to 6
[2] = human liver microsomal stability assay; assay type: in vitro ADME; conditions: liver microsomes, pH 7.4, human liver microsomes 0.5 mg/mL, test compound 2 μmol/L, 37° C., 0-30 min, read-out: Human hepatic intrinsic clearance
Description: A liver microsomal stability assay, which is known to be an in vitro assay for evaluation of the stability of a compound against hepatic metabolism, was carried out to evaluate the stability of Compound (I) against human and mouse hepatic metabolism.
A total of 4 times of experiments were carried out for the combinations of the compound of Example 2-B or the compound of Comparative Example 29 as the test compound and human liver microsomes (Xenotech) or mouse liver microsomes (Xenotech) as the liver microsomes.
The respective reagents to be used for the liver microsomal stability assay were prepared as follows. That is, an appropriate amount of D-glucose 6-phosphate disodium salt (hereinafter referred to as G6P) was dissolved in distilled water at 100 mmol/L, to prepare 100 mmol/L aqueous G6P solution. In 5 mL of distilled water, 1000 units of Glucose 6-phosphate dehydrogenase from Yeast (hereinafter referred to as G6PDH) was dissolved, to prepare 200 units/mL aqueous G6PDH solution. An appropriate amount of MgCl2 was dissolved in distilled water at 100 mmol/L, to prepare 100 mmol/L aqueous MgCl2 solution. To 500 mL of 200 mmol/L aqueous K2HPO4 solution, 200 mmol/L aqueous KH2PO4 solution (about 130 mL) was added, and pH was adjusted to 7.4, to prepare 200 mmol/L KH2PO4/K2HPO4 buffer pH7.4 (hereinafter referred to as 200 mmol/L PB). β-nicotinamide-adenine dinucleotide phosphate, reduced form, tetrasodium salt (hereinafter referred to as (NADPH) was dissolved in distilled water such that the NADPH content becomes 10 mmol/L based on the purity (Purity NADPH) in the assay data described in the attached document, to prepare 10 mmol/L aqueous NADPH solution.
The liver microsomal stability assay was carried out according to the following procedure. First, the reagents listed in Table 12 (excluding microsomes) were mixed together to prepare a reaction mixture, and the reaction mixture was aliquoted in 130 μL volumes to 4 wells (which play roles as the wells for the 0-minute reaction, well for the 30-minute reaction, well for the 20-minute reaction and well for the 10-minute reaction, respectively) in a 96-well tube plate (BM Equipment Co., Ltd; hereinafter referred to as plate). The entire plate was covered with a silicone cap, and the plate was subjected to preincubation by being soaked in a water bath at 37° C. for 10 minutes.
After the preincubation, 3.75 μL of 20 mg/mL microsome suspension+16.25 μL of distilled water (20 μL in total) were added to the well for the 30-minute reaction, and the plate was covered with the cap, followed by soaking the plate in a water bath at 37° C. to initiate the reaction.
Ten minutes after the beginning of the reaction, 3.75 μL of 20 mg/mL microsome suspension+16.25 μL of distilled water (20 μL in total) were added to the well for the 20-minute reaction, and 20 minutes after the beginning of the reaction, 3.75 μL of 20 mg/mL microsome suspension+16.25 μL of distilled water (20 μL in total) were added to the well for the 10-minute reaction. The reaction was further continued by keeping the plate soaked in the water bath at 37° C.
Thirty minutes after the beginning of the reaction, the plate was removed from the water bath, and 120 μL of acetonitrile was added to each well, followed by covering the plate with the cap, stirring the plate for 10 seconds with Direct Mixer, and stopping the reaction by 10 minutes of ice cooling. After the reaction was stopped, 3.75 μL of 20 mg/mL microsome suspension+16.25 μL of distilled water (20 μL in total) were added to the well for the 0-minute reaction.
The reaction liquid in each well was centrifuged at 4° C. at 2500 rpm for 10 minutes, and the supernatant was transferred to a glass-coated microplate (TOMSIC Plate+) to begin LC/MS/MS analysis. The conditions for the LC/MS/MS analysis were as follows: […]

[3] = system: mouse acetic acid writhing model; experiment: mouse acetic acid writhing model (nociceptive pain); assay type: in vivo; conditions: for ED50: male ddY mice, oral administration 45 min before 0.6% acetic acid i.p., dose suppressing 50% of writhing responses vs vehicle group, vehicle A or B

Compound | ED50 ([3]; Mus musculus, read-out: ED50) [mg/kg] | also measured
COc1ccc(-c2cc(C3(O)CCC(O)CC3)nn2-c2ccc(OC)cc2)cc1 (single isomer, unassigned) [Example 4-B, 1-(1,5-Bis(4-methoxyphenyl)-1H-pyrazol-3-yl)cyclohexan-cis-1,4-diol] | – | von Frey total score compared to the vehicle group [1]: significantly improved; von Frey Total Score Observed 1 Hour after Oral Administration (mean ± standard error), Compound-administered group ([1]; dose 10 mg/kg oral, […]): 2.2 ± 0.5; microsomal CLint at 2 μmol/L [2]: 8.69 µL/min/mg
COc1ccc(-c2nc(C3(O)CCC(O)CC3)oc2-c2ccc(OC)cc2)cc1 (single isomer, unassigned) [Example 67-B, 4-(4,5-Bis(4-methoxyphenyl)oxazol-2-yl)cyclohexan-cis-1,4-diol] | 7.32 | von Frey total score compared to the vehicle group [1]: significantly improved; von Frey Total Score Observed 1 Hour after Oral Administration (mean ± standard error), Compound-administered group ([1]; dose 10 mg/kg oral, […]): 0.8 ± 0.7; microsomal CLint at 2 μmol/L [2]: 12.7 µL/min/mg
COc1ccc(-n2nc(C3(O)CCC(O)CC3)cc2-c2ccc(S(C)(=O)=O)cc2)cc1 (stereo not drawn) [Comparative Example 3] | > 10 | –
COc1ccc(-n2nc(C3(OC(C)=O)CCC(O)CC3)cc2-c2ccc(C)cc2)cc1 (stereo not drawn) [Comparative Example 26, c-4-Hydroxy-1-(1-(4-methoxyphenyl)-5-(p-tolyl)-1H-pyrazol-3-yl)-cyclohexan-r-1-yl acetate] | > 10 | –
COc1ccc(-n2nc(C3(OC)CCC(O)CC3)cc2-c2ccc(C)cc2)cc1 (stereo not drawn) [Comparative Example 27, 4-Methoxy-4-(1-(4-methoxyphenyl)-5-p-tolyl-1H-pyrazol-3-yl)cyclohexanol] | > 10 | –
COc1ccc(-n2nc(C3(O)CCC(O)CC3)c(F)c2-c2ccc(C)cc2)cc1 (stereo not drawn) [Comparative Example 28, 1-(4-Fluoro-1-(4-methoxyphenyl)-5-(p-tolyl)-1H-pyrazol-3-yl)cyclohexan-cis-1,4-diol] | > 10 | –
NS(=O)(=O)c1ccc(-n2nc(C3CCCCC3)cc2-c2ccccc2)cc1CO [Comparative Example 30, 4-(3-Cyclohexyl-5-phenyl-1H-pyrazol-1-yl)-2-(hydroxymethyl)benzenesulfonamide] | > 10 | reduction in the number of writhing responses ([3]; administration of 10 mg/kg, t-test): did not cause significant reduction
COc1ccc(-n2nc(C3(O)CCCCC3)cc2-c2ccc(C)cc2)cc1 [Compound 1] | 3.78 | –
CCc1ccc(-c2cc(C3(O)CCC(O)CC3)nn2-c2ccc(OC)cc2)cc1 (stereo not drawn) [Compound 28] | 5.27 | –
COc1ccc(-n2nc(C3(O)CCC(O)CC3)cc2-c2ccc(C)cc2)cc1F (stereo not drawn) [Compound 29] | 3.77 | –
COc1ccc(-n2nc(C3(O)CCC(O)CC3)cc2-c2ccc(C)cc2)cc1F (stereo not drawn) [Compound 30] | – | von Frey Total Score Observed 1 Hour after Oral Administration (mean ± standard error), Compound-administered group ([1]; dose 10 mg/kg oral, […]): 1.2 ± 0.6
COc1ccc(-n2nc(C3(O)CCC(O)CC3)cc2-c2ccc(C)c(F)c2)cc1 (stereo not drawn) [Compound 31] | 0.41 | von Frey Total Score Observed 1 Hour after Oral Administration (mean ± standard error), Compound-administered group ([1]; dose 3 mg/kg oral, vehicle B (27% HP-β-CD)): 0.7 ± 0.5
COc1ccc(-n2nc(C3(O)CCC(O)CC3)cc2-c2ccc(C)cc2)cc1 (stereo not drawn) [Example 2-A, 1-(1-(4-Methoxyphenyl)-5-(p-tolyl)-1H-pyrazol-3-yl)cyclohexan-trans-1,4-diol] | 1.8 | analgesic effect 3 hours after the oral administration (von Frey test) ([1]; oral administration of 0.3 mg/kg, FIG. 1): a strong analgesic effect was maintained; microsomal CLint at 2 μmol/L [2]: 45.1 µL/min/mg
Cc1ccc(-c2cc(C3(O)CCC(O)CC3)nn2-c2ccc(Cl)cc2)cc1 (stereo not drawn) [Example 6-A, 1-(1-(4-Chlorophenyl)-5-p-tolyl-1H-pyrazol-3-yl)cyclohexan-trans-1,4-diol] | 7.97 | –
CCc1ccc(-c2cc(C3(O)CCC(O)CC3)nn2-c2ccc(OC)cc2)cc1 (stereo not drawn) [Example 28] | – | microsomal CLint at 2 μmol/L [2]: 3.19 µL/min/mg
COc1ccc(-n2nc(C3(O)CCC(O)CC3)cc2-c2ccc(C)cc2)cc1F (stereo not drawn) [Example 30] | – | microsomal CLint at 2 μmol/L [2]: 3.92 µL/min/mg
COc1ccc(-n2nc(C3(F)CCC(O)CC3)cc2-c2ccc(C)cc2)cc1 (stereo not drawn) [Example 60, t-4-Fluoro-4-(1-(4-methoxyphenyl)-5-(p-tolyl)-1H-pyrazol-3-yl)-cyclohexan-r-1-ol] | 1.37 | –
COc1ccc(-n2nc(C3(O)CCC(OC)CC3)cc2-c2ccc(C)cc2)cc1 (stereo not drawn) [Example 63, 4-Methoxy-1-(1-(4-methoxyphenyl)-5-(p-tolyl)-1H-pyrazol-3-yl)cyclohexanol] | 5.36 | –

Compound | ED50 ([3]; Mus musculus, read-out: ED50) [mg/kg] | also measured
COc1ccc(-n2nc(C3(CO)CCC(O)CC3)cc2-c2ccc(C)cc2)cc1 (stereo not drawn) [Example 65-A, 4-(Hydroxymethyl)-4-(1-(4-methoxyphenyl)-5-p-tolyl-1H-pyrazol-3-yl)-trans-1,4-cyclohexanol] | 1.44 | –
COc1ccc(-c2nc(C3(O)CCC(O)CC3)sc2-c2ccc(C)cc2)cc1 (stereo not drawn) [Example 69-A, 1-(4-(4-Methoxyphenyl)-5-(p-tolyl)thiazol-2-yl)cyclohexan-trans-1,4-diol] | 3.02 | –
COc1ccc(-c2nc(C3(O)CCC(O)(C(F)(F)F)CC3)sc2-c2ccc(C)cc2)cc1 (stereo not drawn) [Example 70-B, 1-(4-(4-Methoxyphenyl)-5-(p-tolyl)thiazol-2-yl)-4-(trifluoromethyl)cyclohexan-cis-1,4-diol] | – | ED50 [3]: 9.65 mg/kg
CCOC(=O)C1CCC(O)(c2cc(-c3ccc(C)cc3)n(-c3ccc(OC)cc3)n2)CC1 (stereo not drawn) [Example 71, Ethyl 4-hydroxy-4-(1-(4-methoxyphenyl)-5-p-tolyl-1H-pyrazol-3-yl)-cis-cyclohexanecarboxylate] | 1.58 | –
COc1ccc(-n2nc(C3(O)CCC(O)CC3)cc2-c2ccccc2C)cc1 (stereo not drawn) [compound 1] | > 10 | –
OC1CCC(O)(c2cc(-c3ccc(Cl)cc3)n(-c3ccc(F)cc3)n2)CC1 (stereo not drawn) [compound 5] | > 10 | –
OC1CCC(O)(c2cc(-c3ccc(Cl)cc3)n(-c3ccc(Cl)cc3Cl)n2)CC1 (stereo not drawn) [compound 7] | > 10 | –
COc1ccc(-n2nc(C3(O)CCC(O)CC3)cc2-c2cccc(C)c2)cc1 (stereo not drawn) [compound 10] | > 10 | –
Cc1ccc(-c2cc(C3(O)CCC(O)CC3)nn2-c2ccc(F)cc2)cc1 (stereo not drawn) [compound 11] | > 10 | –
COc1ccc(-n2nc(C3(O)CCC(O)CC3)cc2-c2ccc(F)cc2)cc1 (stereo not drawn) [compound 13] | > 10 | –
OC1CCC(O)(c2cc(-c3ccc(F)cc3)n(-c3ccc(Cl)cc3)n2)CC1 (stereo not drawn) [compound 15] | > 10 | –
OC1CCC(O)(c2cc(-c3ccc(F)cc3)n(-c3ccc(F)cc3)n2)CC1 (stereo not drawn) [compound 17] | > 10 | –
OC1CCC(O)(c2cc(-c3ccc(F)cc3)n(-c3ccccc3)n2)CC1 (stereo not drawn) [compound 19] | > 10 | –
Cc1ccc(-n2nc(C3(O)CCC(O)CC3)cc2-c2ccc(F)cc2)cc1 (stereo not drawn) [compound 21] | > 10 | –
Cc1ccc(-c2cc(C3(O)CCC(O)CC3)nn2-c2ccc(S(C)(=O)=O)cc2)cc1 (stereo not drawn) [compound 23] | > 10 | –
COc1ccc(-n2nc(C3(O)CCC(O)CC3)cc2-c2cccnc2OC)cc1 (stereo not drawn) [compound 24] | > 10 | –
NCC1(CC(=O)O)CCCCC1 [gabapentin, reference compound] | – | analgesic effect 3 hours after the oral administration (von Frey test) ([1]; positive controls, gabapentin 30 mg/kg oral, dose of Comparative Example 29 not given): drastically decreased; time of strongest analgesic effect after oral administration (von Frey test) ([1]; positive controls, gabapentin 30 mg/kg oral, dose of Comparative Example 29 not given, FIGS. 1 to 4): 1 h
